Tests used:
[1] = target: T1, GLK/MAP4K3 (Homo sapiens, UniProt Q8IVH8); conditions: 1 μM; Run 1, Run 2
T1 sequence (Q8IVH8 1-894): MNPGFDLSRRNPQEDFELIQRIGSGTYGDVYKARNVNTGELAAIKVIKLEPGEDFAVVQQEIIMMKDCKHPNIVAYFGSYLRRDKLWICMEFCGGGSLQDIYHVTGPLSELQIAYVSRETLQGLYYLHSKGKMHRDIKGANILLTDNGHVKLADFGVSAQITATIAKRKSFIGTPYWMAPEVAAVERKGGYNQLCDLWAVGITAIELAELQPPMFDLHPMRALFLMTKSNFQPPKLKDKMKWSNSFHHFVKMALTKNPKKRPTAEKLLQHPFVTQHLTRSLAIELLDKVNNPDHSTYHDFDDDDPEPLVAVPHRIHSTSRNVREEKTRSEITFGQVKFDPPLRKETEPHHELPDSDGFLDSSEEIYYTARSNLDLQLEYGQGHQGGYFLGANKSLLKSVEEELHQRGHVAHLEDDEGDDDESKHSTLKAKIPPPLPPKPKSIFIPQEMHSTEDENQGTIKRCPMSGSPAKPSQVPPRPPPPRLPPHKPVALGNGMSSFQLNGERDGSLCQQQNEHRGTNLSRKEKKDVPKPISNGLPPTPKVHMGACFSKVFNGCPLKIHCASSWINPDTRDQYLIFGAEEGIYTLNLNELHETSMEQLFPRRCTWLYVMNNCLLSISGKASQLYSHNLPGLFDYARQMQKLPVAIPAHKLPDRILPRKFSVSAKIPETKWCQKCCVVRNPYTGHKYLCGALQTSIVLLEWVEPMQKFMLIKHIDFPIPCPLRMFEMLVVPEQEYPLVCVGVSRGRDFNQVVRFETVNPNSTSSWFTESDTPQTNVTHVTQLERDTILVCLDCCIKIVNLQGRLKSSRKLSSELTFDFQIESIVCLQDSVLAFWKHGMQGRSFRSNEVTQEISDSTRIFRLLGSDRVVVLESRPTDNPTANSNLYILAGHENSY

[2] = target: T2, MASTL (Homo sapiens, UniProt Q96GX5); assay: biochemical; conditions: read-out: % enzyme activity, 1 μM; Run 1, Run 2
T2 sequence (Q96GX5 1-879): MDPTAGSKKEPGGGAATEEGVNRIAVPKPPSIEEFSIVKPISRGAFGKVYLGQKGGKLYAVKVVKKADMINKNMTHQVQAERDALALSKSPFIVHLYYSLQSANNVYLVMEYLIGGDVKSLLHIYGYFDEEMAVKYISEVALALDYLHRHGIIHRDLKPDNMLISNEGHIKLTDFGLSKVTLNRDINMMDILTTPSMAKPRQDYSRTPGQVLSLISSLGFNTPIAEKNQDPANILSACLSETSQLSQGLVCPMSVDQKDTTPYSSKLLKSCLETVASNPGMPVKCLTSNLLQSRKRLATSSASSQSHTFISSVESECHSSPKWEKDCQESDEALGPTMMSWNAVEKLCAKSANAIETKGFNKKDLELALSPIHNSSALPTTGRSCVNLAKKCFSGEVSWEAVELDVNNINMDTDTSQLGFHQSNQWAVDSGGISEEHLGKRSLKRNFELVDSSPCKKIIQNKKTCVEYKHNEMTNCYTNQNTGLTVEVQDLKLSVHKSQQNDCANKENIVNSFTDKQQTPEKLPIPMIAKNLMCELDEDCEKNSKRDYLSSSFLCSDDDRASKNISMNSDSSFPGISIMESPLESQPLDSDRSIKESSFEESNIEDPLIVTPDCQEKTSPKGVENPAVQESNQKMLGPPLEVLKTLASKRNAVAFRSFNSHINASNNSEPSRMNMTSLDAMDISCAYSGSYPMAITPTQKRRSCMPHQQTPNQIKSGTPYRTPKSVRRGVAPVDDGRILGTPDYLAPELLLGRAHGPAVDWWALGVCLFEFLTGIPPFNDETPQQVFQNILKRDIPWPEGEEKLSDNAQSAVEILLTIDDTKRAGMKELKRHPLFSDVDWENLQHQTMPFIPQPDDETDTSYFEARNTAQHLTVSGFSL

[3] = target: ERK2/MAPK1 (Homo sapiens, UniProt P28482); assay: biochemical; conditions: read-out: % enzyme activity, 1 μM; Run 1, Run 2
Sequence of ERK2/MAPK1 (P28482 whole entry): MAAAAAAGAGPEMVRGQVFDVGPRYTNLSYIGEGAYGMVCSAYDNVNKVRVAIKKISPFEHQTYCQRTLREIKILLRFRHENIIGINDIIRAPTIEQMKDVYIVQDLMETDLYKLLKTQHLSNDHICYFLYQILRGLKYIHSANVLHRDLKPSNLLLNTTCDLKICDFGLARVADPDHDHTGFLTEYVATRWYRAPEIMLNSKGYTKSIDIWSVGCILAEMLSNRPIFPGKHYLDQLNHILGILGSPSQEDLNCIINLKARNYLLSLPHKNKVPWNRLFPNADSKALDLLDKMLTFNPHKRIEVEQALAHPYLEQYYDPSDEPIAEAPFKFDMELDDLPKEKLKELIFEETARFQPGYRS

[4] = target: T3, RIPK5 (Homo sapiens, UniProt Q6XUX3); assay: biochemical; conditions: read-out: % enzyme activity, 1 μM; Run 1, Run 2
T3 sequence (Q6XUX3 1-929): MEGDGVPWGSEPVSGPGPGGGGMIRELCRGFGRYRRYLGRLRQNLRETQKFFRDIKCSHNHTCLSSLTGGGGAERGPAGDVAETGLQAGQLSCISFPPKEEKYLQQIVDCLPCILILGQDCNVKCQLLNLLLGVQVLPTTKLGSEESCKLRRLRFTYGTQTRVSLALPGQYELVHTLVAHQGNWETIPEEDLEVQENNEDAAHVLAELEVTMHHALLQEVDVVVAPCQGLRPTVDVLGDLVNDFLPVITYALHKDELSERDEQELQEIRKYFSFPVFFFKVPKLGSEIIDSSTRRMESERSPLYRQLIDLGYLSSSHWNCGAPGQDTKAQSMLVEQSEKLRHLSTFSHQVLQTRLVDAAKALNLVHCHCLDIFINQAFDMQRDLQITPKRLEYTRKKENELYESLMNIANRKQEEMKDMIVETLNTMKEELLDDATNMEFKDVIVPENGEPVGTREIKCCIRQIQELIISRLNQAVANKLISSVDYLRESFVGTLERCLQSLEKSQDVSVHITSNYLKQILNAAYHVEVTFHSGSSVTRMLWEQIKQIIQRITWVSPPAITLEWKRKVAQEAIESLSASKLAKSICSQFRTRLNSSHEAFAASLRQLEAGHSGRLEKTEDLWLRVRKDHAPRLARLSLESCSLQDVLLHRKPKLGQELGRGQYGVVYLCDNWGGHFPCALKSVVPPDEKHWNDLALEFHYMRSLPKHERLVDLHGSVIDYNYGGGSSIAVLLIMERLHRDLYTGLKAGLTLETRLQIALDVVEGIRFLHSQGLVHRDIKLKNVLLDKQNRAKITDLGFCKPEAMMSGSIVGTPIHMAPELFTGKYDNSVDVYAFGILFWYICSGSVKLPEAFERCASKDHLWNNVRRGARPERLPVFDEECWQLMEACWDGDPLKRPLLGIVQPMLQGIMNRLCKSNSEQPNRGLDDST

[5] = target: FRK/PTK5 (Homo sapiens, UniProt P42685); conditions: 1 μM; Run 1, Run 2
Sequence of FRK/PTK5 (P42685 whole entry): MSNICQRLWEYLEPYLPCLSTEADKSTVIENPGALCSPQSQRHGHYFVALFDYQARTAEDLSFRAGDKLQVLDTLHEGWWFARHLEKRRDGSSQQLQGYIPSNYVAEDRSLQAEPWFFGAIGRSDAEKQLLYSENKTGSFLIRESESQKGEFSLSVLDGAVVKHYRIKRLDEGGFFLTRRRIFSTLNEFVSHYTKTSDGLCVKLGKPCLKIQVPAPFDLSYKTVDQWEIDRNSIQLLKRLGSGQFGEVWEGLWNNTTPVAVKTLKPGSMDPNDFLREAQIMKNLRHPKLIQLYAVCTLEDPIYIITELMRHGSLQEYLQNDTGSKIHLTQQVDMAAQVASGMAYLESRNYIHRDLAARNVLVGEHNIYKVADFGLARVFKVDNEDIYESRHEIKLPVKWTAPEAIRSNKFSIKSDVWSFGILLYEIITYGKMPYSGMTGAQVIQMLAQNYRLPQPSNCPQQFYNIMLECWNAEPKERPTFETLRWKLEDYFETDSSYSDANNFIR

[6] = target: ROS/ROS1 (Homo sapiens, UniProt P08922); assay: biochemical; conditions: read-out: % enzyme activity, 1 μM; Run 1, Run 2
Sequence of ROS/ROS1 (P08922 28-2347): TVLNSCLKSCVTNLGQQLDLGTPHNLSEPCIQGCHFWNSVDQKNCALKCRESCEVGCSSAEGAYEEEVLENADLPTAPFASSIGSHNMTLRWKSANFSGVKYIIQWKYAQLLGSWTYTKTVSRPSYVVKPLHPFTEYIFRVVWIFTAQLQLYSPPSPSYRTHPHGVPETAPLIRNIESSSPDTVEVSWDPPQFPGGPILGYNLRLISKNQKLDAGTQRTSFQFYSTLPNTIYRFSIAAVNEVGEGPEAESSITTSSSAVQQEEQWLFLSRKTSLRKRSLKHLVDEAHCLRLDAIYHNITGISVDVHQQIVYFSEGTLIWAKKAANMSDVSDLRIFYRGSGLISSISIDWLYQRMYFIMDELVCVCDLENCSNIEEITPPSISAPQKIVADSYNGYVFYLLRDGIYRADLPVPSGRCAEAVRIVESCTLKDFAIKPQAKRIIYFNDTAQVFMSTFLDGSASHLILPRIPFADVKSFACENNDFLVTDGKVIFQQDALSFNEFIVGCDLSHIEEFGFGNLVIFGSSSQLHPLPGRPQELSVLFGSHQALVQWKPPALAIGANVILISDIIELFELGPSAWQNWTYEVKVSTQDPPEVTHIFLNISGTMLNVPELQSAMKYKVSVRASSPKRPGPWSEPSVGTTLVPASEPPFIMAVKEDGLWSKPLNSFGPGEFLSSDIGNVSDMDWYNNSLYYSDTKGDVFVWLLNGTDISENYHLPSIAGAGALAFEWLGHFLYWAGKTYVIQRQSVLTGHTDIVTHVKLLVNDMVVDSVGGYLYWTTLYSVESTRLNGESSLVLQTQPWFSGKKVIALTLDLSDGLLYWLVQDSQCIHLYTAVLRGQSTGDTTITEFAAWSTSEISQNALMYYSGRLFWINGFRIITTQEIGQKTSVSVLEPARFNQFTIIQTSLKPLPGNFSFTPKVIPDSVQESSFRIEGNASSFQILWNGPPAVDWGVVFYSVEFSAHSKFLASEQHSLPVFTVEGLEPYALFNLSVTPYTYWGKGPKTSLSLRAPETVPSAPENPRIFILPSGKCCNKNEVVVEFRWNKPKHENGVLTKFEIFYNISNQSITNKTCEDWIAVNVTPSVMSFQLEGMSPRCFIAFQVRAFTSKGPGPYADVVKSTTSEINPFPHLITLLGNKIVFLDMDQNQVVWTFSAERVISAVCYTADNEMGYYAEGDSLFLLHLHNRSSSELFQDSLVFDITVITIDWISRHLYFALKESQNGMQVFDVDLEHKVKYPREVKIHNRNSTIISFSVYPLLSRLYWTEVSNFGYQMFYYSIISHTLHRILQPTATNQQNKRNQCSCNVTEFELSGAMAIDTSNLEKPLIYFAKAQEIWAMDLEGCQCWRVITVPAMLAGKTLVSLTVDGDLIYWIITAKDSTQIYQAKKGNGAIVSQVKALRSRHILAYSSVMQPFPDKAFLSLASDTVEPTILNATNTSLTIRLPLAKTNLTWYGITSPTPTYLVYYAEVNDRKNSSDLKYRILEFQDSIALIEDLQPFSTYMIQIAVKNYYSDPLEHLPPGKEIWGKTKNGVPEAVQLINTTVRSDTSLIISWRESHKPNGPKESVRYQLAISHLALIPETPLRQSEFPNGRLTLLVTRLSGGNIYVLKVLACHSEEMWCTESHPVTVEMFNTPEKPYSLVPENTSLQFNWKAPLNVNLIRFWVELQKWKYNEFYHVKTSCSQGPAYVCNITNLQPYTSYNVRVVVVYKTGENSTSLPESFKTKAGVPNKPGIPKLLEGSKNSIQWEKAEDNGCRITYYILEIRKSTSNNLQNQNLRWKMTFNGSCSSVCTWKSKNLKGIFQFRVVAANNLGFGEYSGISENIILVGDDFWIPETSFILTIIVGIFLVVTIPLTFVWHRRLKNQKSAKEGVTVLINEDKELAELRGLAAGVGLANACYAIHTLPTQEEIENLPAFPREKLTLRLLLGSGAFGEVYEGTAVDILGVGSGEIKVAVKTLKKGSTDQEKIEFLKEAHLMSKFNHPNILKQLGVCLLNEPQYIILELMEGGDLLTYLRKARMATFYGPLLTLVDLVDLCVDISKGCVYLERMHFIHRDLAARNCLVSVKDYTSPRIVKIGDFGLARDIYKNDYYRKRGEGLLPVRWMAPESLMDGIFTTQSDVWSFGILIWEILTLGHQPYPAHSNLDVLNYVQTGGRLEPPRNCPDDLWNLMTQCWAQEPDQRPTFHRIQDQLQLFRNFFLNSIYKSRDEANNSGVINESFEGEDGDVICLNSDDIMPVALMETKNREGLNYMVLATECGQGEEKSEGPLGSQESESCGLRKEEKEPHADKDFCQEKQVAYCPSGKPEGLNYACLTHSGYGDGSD

SMILES	% enzyme activity [1] [%]	remaining activity at 1 µM [2] [%]	remaining activity at 1 µM [3] [%]	remaining activity at 1 µM [4] [%]	% enzyme activity [5] [%]	remaining activity at 1 µM [6] [%]
COc1cc(-c2cncc(-c3ccc(N4C[C@@H](C)N(C)[C@@H](C)C4)cc3)c2C)cc(F)c1C(N)=O [Compound 26c, 2-Fluoro-6-methoxy-4-(4-methyl-5-(4-((3R,5S)-3,4,5-trimethylpiperazin-1-yl)phenyl)pyridin-3-yl)benzamide]	88.71	102	89.8	86.8	95.52	97.4
COc1cc(-c2cncc(-c3ccc(N4CCN(C)CC4)cc3)c2C)cc(F)c1C(N)=O [Compound 26a, 2-Fluoro-6-methoxy-4-(4-methyl-5-(4-(4-methylpiperazin-1-yl)phenyl)pyridin-3-yl)benzamide]	88.16	99.3	92.5	83.1	95.48	87.7
